# From patent publication US12295940B2, “Viral inhibitors, the synthesis thereof, and intermediates thereto” (Takeda Pharmaceutical Company Limited, priority 2022, dated 2025)
# Legend:
# [1] = type: physicochemical
# Description: The following solubility data was generated and referenced in one or more of the prior examples. A mixture of approx. 2 g of maribavir and 5 mL solvent was stirred overnight in sealed vials at different temperatures. The clear supernatant solutions were sampled for […] assay. All examples were done in triplicates. Table 3-5. Maribavir solubilities in iPrOAc and toluene.
# [2] = Stability data of process systems (Example 3-23); type: physicochemical; conditions: 7 days
# Description: The following stability data was generated and referenced in one or more of the prior examples. Stability of the following systems were studied and found to be stable for at least 7 days: Stability of Compound 3 HCl in MeOH/TBME at 40° C.; Stability of reaction mixture at 40° C. (amount of maribavir); Stability of biphasic mixture at 40° C. (before extraction); Stability of biphasic mixture at 40° C. (during last NaCl washing); Stability of reaction mixture after final distillation step at Stability of biphasic mixture at 75° C.; Stability of reaction mixture after final distillation step at 90° C.; Stability of crystallization mixture after dosage of 2nd portion of toluene at reflux; Stability of crystallization at 20° C.; Stability of mixture during slurry wash at 20-25° C.; Stability of maribavir in the mother liquor at 20-25° C.; Stability of wet cake at 70° C.; and Stability of dry cake at 70° C.
# [3] = type: physicochemical; conditions: pH 4
# Source text: A preliminary test was done to determine the lower pH to be tested: Three samples of the biphasic mixture during 1st NaCl-wash was taken and adjusted separately to pH 4, 5, and 6. These samples were refluxed overnight and sampled for HPLC purity at different time points. […] It was observed that at lower pH values, some white precipitate occurred. This precipitate dissolved upon raising the pH with NaOH. It was assumed that this was the hydrochloride salt of maribavir. Upon further review, at pH<5.5, the precipitate occurred. Therefore, the lowest pH tested was 6. The distilled reaction mixtures were subjected to crystallization on a 400 ml Easymax scale.
smiles,measurement,setting,value
"CC(C)Nc1nc2cc(Cl)c(Cl)cc2n1[C@H]1O[C@@H](CO)[C@H](O)[C@@H]1O [Maribavir, (2S,3S,4R,5S)-2-(5,6-dichloro-2-(isopropylamino)-1H-benzo[d]imidazol-1-yl)-5-(hydroxymethyl)tetrahydrofuran-3,4-diol]",Solubility in iPrOAc (in words),[1],good solubility
same,Stability (time found stable),[2],at least 7 days
same,Stability by HPLC purity (in words),[3],perfect stability
